What all share (type): biochemical
The target in assay [1] is T1, CDK7/CycH/Mat1 (Homo sapiens, UniProt P50613).
T1 construct: purchased Carna
Briefly: CDK7 Enzymatic Activity Assay (Lance Kinase Activity Assay, FRET). The method in brief:
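TR-FRET (LANCE) kinase assay with ULight-MBP peptide substrate and Eu-labelled anti-phospho antibody; compounds in 8-point 1:3 series in HEPES 50 mM pH 7.5, MgCl2 10 mM, EGTA 1 mM, DTT 2 mM, 0.01% Tween-20.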

The target of assay [2] is T2, CDK2/CycA (Homo sapiens, UniProt P24941).
T2 construct: purchased Proqinase
In words: CDK2 Enzymatic Activity Assay (Lance Kinase Activity Assay, FRET). The conditions noted are these: for CDK2 IC50 range class: Table 5B, symbols per IC50 ranges of b615. The protocol: (§1) This protocol describes how the Lance Kinase Activity Assay was performed to determine IC50 values of compounds of general formula (I) against CDK/Cyclin complexes. The principle behind this enzymatic assay is based upon the phosphorylation of the Ulight-Peptide Substrat. It is detected by using a specific EU-labeled anti-phospho peptide antibody.
(§2) Binding of an inhibitor to the kinase prevents phosphorylation of the ULlight-MBP Substrat, resulting in a loss of FRET.
CDK2 Enzymatic Activity Assay
(§3) The compounds of general formula (I) exemplary summarized in Table 1 were diluted from a 10 mM DMSO stock solution 1:10 in a total volume of 15 μl DMSO. This compound predilution was then serial diluted 1:3 over 8 steps in DMSO and briefly spun down. Each compound solution was now diluted 1:20 in Enzymatic Buffer (HEPES: 50 mM, pH: 7.5; MgCl2: 10 mM; EGTA: 1 mM; DTT: 2 mM; Tween-20: 0.01%), mixed thoroughly and spun down.
(§4) For positive controls, 2 μl of DMSO working solution were mixed with 6 μl CDK2/CycA/substrate working solution and 2 μl ATP working solution. Positive and negative controls were calculated from at least 8 different wells. The 384 well plates were mixed in a Teleshaker plate mixer (Beckman Coulter, Brea, Calif., USA) at 2000 rpm for 40 sec, and incubated for 1 h at room temperature before addition of 10 μl LANCE Detection Buffer (EDTA: […]; Eu-Anti-P-MBP: 4 nM) per well. Plates were mixed in a Teleshaker plate mixer (Beckman Coulter, Brea, Calif., USA) at 2000 rpm for […], followed by incubation with Detection Buffer for 1 h, and reading. […] IC50 values were determined from the sigmoidal dose response curves with the software Quattro Workflow (Quattro GmbH, Munich, Germany).

The target of assay [3] is T3, CDK9/Cyclin T1 (Homo sapiens, UniProt P50750).
T3 construct: purchased Invitrogen
In words: CDK9 Enzymatic Activity Assay (Lance Kinase Activity Assay, FRET). The conditions noted are these: for CDK9: Selectivity of CDK7 inhibition over CDK9 inhibition [fold]: Table 5B, symbols per IC50 ranges of b615. As to the method:
as §1, §2
CDK9 Enzymatic Activity Assay
as §3
as §4, with “CDK9/cyclin T1/substrate” for “CDK2/CycA/substrate”, “(1×; EDTA:” for “(EDTA:”

[4] abbreviates: Table 5A, 25 μM ATP final, read-out: CDK7: IC50 [mM] for CDK7 inhibition (the above defined ranges apply).

Usually IC50 stands for the concentration at which inhibition is half-maximal.

Read-outs that look alike come from different tables or passages of the source.

T3 sequence (P50750 whole entry): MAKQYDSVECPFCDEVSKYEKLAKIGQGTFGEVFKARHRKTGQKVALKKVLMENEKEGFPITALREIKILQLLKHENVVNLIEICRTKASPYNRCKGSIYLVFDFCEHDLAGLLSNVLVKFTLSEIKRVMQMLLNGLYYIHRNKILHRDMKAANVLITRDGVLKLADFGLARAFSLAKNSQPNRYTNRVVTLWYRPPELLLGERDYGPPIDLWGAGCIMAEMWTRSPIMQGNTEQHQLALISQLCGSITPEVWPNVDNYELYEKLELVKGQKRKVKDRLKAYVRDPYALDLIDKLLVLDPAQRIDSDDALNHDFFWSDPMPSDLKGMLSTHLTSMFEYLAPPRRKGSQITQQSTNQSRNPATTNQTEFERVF
T3 sequence (O60563 whole entry partner): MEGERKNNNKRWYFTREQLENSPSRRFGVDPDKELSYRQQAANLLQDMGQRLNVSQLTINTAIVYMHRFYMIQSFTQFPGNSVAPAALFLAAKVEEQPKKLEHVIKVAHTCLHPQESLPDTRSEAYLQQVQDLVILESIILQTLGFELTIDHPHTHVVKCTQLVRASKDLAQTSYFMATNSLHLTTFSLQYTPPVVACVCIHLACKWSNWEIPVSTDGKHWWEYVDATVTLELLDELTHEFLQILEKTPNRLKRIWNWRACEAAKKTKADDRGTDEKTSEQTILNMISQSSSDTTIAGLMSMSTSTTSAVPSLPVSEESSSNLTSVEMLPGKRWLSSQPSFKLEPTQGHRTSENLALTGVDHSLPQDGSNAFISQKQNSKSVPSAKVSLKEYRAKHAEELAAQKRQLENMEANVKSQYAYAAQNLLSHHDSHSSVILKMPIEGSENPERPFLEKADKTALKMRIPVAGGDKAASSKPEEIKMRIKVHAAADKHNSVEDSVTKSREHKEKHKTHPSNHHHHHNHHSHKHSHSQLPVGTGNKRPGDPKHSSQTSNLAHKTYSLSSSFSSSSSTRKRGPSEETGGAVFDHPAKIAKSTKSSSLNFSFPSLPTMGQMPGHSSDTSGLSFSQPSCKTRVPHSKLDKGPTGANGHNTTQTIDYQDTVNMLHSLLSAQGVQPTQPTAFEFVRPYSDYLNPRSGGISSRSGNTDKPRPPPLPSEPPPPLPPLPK
T1 sequence (P50613 whole entry): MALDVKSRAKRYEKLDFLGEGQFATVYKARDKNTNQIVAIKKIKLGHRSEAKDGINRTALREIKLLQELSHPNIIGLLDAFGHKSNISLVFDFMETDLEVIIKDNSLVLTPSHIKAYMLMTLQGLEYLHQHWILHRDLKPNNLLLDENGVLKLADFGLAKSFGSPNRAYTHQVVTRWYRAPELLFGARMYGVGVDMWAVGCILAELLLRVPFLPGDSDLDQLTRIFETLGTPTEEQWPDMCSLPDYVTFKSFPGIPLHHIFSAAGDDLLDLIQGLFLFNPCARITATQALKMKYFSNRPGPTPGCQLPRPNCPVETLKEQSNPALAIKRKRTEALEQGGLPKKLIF
T1 sequence (P51946 whole entry partner): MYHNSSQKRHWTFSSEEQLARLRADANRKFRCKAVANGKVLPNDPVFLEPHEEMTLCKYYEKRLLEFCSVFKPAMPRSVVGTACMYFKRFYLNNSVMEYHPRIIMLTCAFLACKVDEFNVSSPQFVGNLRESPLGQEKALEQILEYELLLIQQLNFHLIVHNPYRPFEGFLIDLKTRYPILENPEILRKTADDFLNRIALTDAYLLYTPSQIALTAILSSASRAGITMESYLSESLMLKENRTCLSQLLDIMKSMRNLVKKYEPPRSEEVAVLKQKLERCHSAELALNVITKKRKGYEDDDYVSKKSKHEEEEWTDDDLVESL
T1 sequence (P51948 whole entry partner): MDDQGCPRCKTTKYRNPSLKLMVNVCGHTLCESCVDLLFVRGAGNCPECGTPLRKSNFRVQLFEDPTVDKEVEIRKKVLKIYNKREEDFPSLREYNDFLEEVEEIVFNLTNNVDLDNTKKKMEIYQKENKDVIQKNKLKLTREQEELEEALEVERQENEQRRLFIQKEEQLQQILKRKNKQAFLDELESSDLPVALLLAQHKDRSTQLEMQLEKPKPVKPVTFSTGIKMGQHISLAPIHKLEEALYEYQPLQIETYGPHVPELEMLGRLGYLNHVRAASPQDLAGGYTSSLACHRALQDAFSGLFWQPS

In the case of `COc1cccc([C@H](C)Nc2nc(NCCCN3CCOCC3)nc3c(C(C)C)cnn23)c1` [(VIII-j), (S)-8-isopropyl-N4-(1-(3-methoxyphenyl)ethyl)-N2-(3-morpholinopropyl)pyrazolo[1,5-a][1,3,5]triazine-2,4-diamine], the half-inhibitory concentration (IC50) in assay [1] (setting [4]) is more than 100 nM. For the same molecule, the “CDK2 IC50 range class” value in assay [2] is listed as “+++ (IC50>2500 nM)”. In assay [3], the “CDK9: Selectivity of CDK7 inhibition over CDK9 inhibition [fold]” value is “+++ (IC50>2500 nM)”.

For `COc1ccc([C@H](C)Nc2nc(OC3CCN(C)CC3)nc3c(C(C)C)cnn23)cc1` [(VII-aa), (S)-8-isopropyl-N-(1-(4-methoxyphenyl)ethyl)-2-((1-methylpiperidin-4-yl)oxy)pyrazolo[1,5-a][1,3,5]triazin-4-amine], in assay [1] (setting [4]), the half-inhibitory concentration (IC50) is more than 100 nM. Also, the “CDK2 IC50 range class” value in assay [2] is recorded as “+++ (IC50>2500 nM)”. In addition, in assay [3], the “CDK9: Selectivity of CDK7 inhibition over CDK9 inhibition [fold]” value is listed as “+++ (IC50>2500 nM)”.

For `CC(C)c1cnn2c(N[C@@H](C)c3ccccc3I)nc(O[C@@H]3CCCNC3)nc12` [(VII-au), N-((S)-1-(2-iodophenyl)ethyl)-8-isopropyl-2-((R)-piperidin-3-yloxy)pyrazolo[1,5-a][1,3,5]triazin-4-amine], in assay [1] (setting [4]), the half-inhibitory concentration (IC50) fell in the range of 10 to 30 nM. Besides, the “CDK2 IC50 range class” value in assay [2] was “+++ (IC50>2500 nM)”. In addition, in assay [3], the “CDK9: Selectivity of CDK7 inhibition over CDK9 inhibition [fold]” value is given as “+++ (IC50>2500 nM)”.

In the case of `COc1cccc([C@H](C)Nc2nc(C(=O)N3CCNCC3)nc3c(C(C)C)cnn23)c1` [(XXVI-4), (S)-(8-isopropyl-4-((1-(3-methoxyphenyl)ethyl)amino)pyrazolo[1,5-a][1,3,5]triazin-2-yl)(piperazin-1-yl)methanone], in assay [1] (setting [4]), the concentration for half-maximal inhibition (IC50) is more than 100 nM. Besides, the “CDK2 IC50 range class” value in assay [2] is “+++ (IC50>2500 nM)”. Besides, in assay [3], the “CDK9: Selectivity of CDK7 inhibition over CDK9 inhibition [fold]” value is given as “+++ (IC50>2500 nM)”.

Take `COc1ccccc1[C@H](C)Nc1nc([S+]([O-])C2CCNCC2)nc2c(C(C)C)cnn12` (stereo partly drawn) [(X-c), 8-isopropyl-N-((S)-1-(2-methoxyphenyl)ethyl)-2-(piperidin-4-ylsulfinyl)pyrazolo[1,5-a][1,3,5]triazin-4-amine]: the half-inhibitory concentration (IC50) in assay [1] (setting [4]) was less than 10 nM; in assay [1] (Table 7, lower part, read-out: IC50 [nM] CDK7), less than 10 nM; in assay [1] (Table 7, upper part, read-out: IC50 [nM] CDK7) it was less than 10 nM; in assay [2] (Table 7, upper part) it was more than 2500 nM; in assay [3] (Table 7, upper part) it was more than 2500 nM. Also, the “CDK2 IC50 range class” value in assay [2] is on record as “+++ (IC50>2500 nM)”. Also, in assay [2] (Table 7, lower part), the “Selectivity CDK7 over CDK2 [fold]” value amounted to 1612 fold. In addition, the “CDK9: Selectivity of CDK7 inhibition over CDK9 inhibition [fold]” value in assay [3] was “+++ (IC50>2500 nM)”. Also, the “Selectivity CDK7 over CDK9 [fold]” value in assay [3] (Table 7, lower part) came to 1475 fold.

Take `CC(C)c1cnn2c(N[C@@H](C)c3ccccc3O)nc(O[C@@H]3CCCNC3)nc12` [(VII-ba), 2-((S)-1-((8-isopropyl-2-((R)-piperidin-3-yloxy)pyrazolo[1,5-a][1,3,5]triazin-4-yl)amino)ethyl)phenol]: the IC50 in assay [1] (setting [4]) was less than 10 nM. Also, in assay [2], the “CDK2 IC50 range class” value is “+++ (IC50>2500 nM)”. Also, the “CDK9: Selectivity of CDK7 inhibition over CDK9 inhibition [fold]” value in assay [3] is on record as “+++ (IC50>2500 nM)”.

For `COc1cccc([C@H](C)Nc2nc(N3CC(N4CCCC4=O)C3)nc3c(C(C)C)cnn23)c1` [(VIII-n), (S)-1-(1-(8-isopropyl-4-((1-(3-methoxyphenyl)ethyl)amino)pyrazolo[1,5-a][1,3,5]triazin-2-yl)azetidin-3-yl)pyrrolidin-2-one], in assay [1] (setting [4]), the IC50 is more than 100 nM. Further, in assay [2], the “CDK2 IC50 range class” value is “+++ (IC50>2500 nM)”. For the same molecule, the “CDK9: Selectivity of CDK7 inhibition over CDK9 inhibition [fold]” value in assay [3] was “+++ (IC50>2500 nM)”.

In the case of `COc1cccc([C@H](C)Nc2nc(CN(C)CC3CNC3)nc3c(C(C)C)cnn23)c1` [(XXIX-3), (S)-2-(((azetidin-3-ylmethyl)(methyl)amino)methyl)-8-isopropyl-N-(1-(3-methoxyphenyl)ethyl)pyrazolo[1,5-a][1,3,5]triazin-4-amine], the IC50 in assay [1] (setting [4]) was more than 100 nM. Also, the “CDK2 IC50 range class” value in assay [2] is “+++ (IC50>2500 nM)”. For the same molecule, the “CDK9: Selectivity of CDK7 inhibition over CDK9 inhibition [fold]” value in assay [3] was “+++ (IC50>2500 nM)”.

As to `COc1cccc([C@H](C)Nc2nc(N[C@@H]3CCCNC3)nc3c(C(C)C)cnn23)c1` [(VIII-h), 8-isopropyl-N4-((S)-1-(3-methoxyphenyl)ethyl)-N2-((R)-piperidin-3-yl)pyrazolo[1,5-a][1,3,5]triazine-2,4-diamine], the IC50 in assay [1] (setting [4]) was 10 to 30 nM. Further, the “CDK2 IC50 range class” value in assay [2] was “+++ (IC50>2500 nM)”. The “CDK9: Selectivity of CDK7 inhibition over CDK9 inhibition [fold]” value in assay [3] is “+++ (IC50>2500 nM)”.

Turning to `CC(C)c1cnn2c(NC(C)c3cccc4c3cnn4C)nc(O[C@@H]3CCCNC3)nc12` (stereo partly drawn) [(VII-bh), 8-isopropyl-N-(1-(1-methyl-1H-indazol-4-yl)ethyl)-2-((R)-piperidin-3-yloxy)pyrazolo[1,5-a][1,3,5]triazin-4-amine], the concentration for half-maximal inhibition (IC50) in assay [1] (setting [4]) was less than 10 nM. In addition, in assay [2], the “CDK2 IC50 range class” value is “+++ (IC50>2500 nM)”. Also, the “CDK9: Selectivity of CDK7 inhibition over CDK9 inhibition [fold]” value in assay [3] was “+++ (IC50>2500 nM)”.

In the case of `CC(C)c1cnn2c(NC(C)c3ccccc3C3CC3)nc(O[C@@H]3CCCNC3)nc12` (stereo partly drawn) [(VII-ao), N-(1-(2-cyclopropyl-phenyl)ethyl)-8-isopropyl-2-((R)-piperidin-3-yloxy)pyrazolo[1,5-a][1,3,5]triazin-4-amine], the IC50 in assay [1] (setting [4]) was more than 100 nM. Further, in assay [2], the “CDK2 IC50 range class” value is listed as “+++ (IC50>2500 nM)”. Further, the “CDK9: Selectivity of CDK7 inhibition over CDK9 inhibition [fold]” value in assay [3] is reported as “+++ (IC50>2500 nM)”.

For `CC(C)c1cnn2c(NC(C)c3ccccc3S(=O)(=O)N3CCCC3)nc(O[C@@H]3CCCNC3)nc12` (stereo partly drawn) [(VII-bz), 8-isopropyl-2-((R)-piperidin-3-yloxy)-N-(1-(2-(pyrrolidin-1-ylsulfonyl)phenyl)ethyl)pyrazolo[1,5-a][1,3,5]triazin-4-amine], in assay [1] (setting [4]), the concentration for half-maximal inhibition (IC50) is less than 10 nM. Further, in assay [2], the “CDK2 IC50 range class” value is reported as “+++ (IC50>2500 nM)”. Moreover, the “CDK9: Selectivity of CDK7 inhibition over CDK9 inhibition [fold]” value in assay [3] is listed as “+++ (IC50>2500 nM)”.

Consider `COc1cccc([C@H](C)Nc2nc(N3CCC4(CCNC4)C3)nc3c(C(C)C)cnn23)c1` (stereo partly drawn) [(VIII-af), 8-isopropyl-N-((S)-1-(3-methoxyphenyl)ethyl)-2-(2,7-diazaspiro[4.4]nonan-2-yl)pyrazolo[1,5-a][1,3,5]triazin-4-amine], for which the 50% inhibitory concentration (IC50) in assay [1] (setting [4]) was in the range of 10 to 30 nM. Besides, in assay [2], the “CDK2 IC50 range class” value is on record as “+++ (IC50>2500 nM)”. The “CDK9: Selectivity of CDK7 inhibition over CDK9 inhibition [fold]” value in assay [3] is “+++ (IC50>2500 nM)”.

On to `COc1cccc([C@H](C)Nc2nc(NCCN3CCCC3)nc3c(C(C)C)cnn23)c1` [(VIII-l), (S)-8-isopropyl-N4-(1-(3-methoxyphenyl)ethyl)-N2-(2-(pyrrolidin-1-yl)ethyl)pyrazolo[1,5-a][1,3,5]triazine-2,4-diamine], for which the concentration for half-maximal inhibition (IC50) in assay [1] (setting [4]) is more than 100 nM. Further, the “CDK2 IC50 range class” value in assay [2] was “+++ (IC50>2500 nM)”. For the same molecule, the “CDK9: Selectivity of CDK7 inhibition over CDK9 inhibition [fold]” value in assay [3] is given as “+++ (IC50>2500 nM)”.

On to `COc1cccc([C@H](C)Nc2nc(NCC3CCNC3)nc3c(C(C)C)cnn23)c1` (stereo partly drawn) [(VIII-w), 8-isopropyl-N4-((S)-1-(3-methoxyphenyl)ethyl)-N2-(pyrrolidin-3-ylmethyl)pyrazolo[1,5-a][1,3,5]triazine-2,4-diamine], for which, in assay [1] (setting [4]), the IC50 is 30 to 100 nM. Besides, the “CDK2 IC50 range class” value in assay [2] is “+++ (IC50>2500 nM)”. Besides, the “CDK9: Selectivity of CDK7 inhibition over CDK9 inhibition [fold]” value in assay [3] was “+++ (IC50>2500 nM)”.

Regarding `COc1cccc([C@H](C)Nc2nc(N3CCC34CCCNC4)nc3c(C(C)C)cnn23)c1` (stereo partly drawn) [(VIII-ag), 8-isopropyl-N-((S)-1-(3-methoxyphenyl)ethyl)-2-(1,6-diazaspiro[3.5]nonan-1-yl)pyrazolo[1,5-a][1,3,5]triazin-4-amine], in assay [1] (setting [4]), the IC50 was 10 to 30 nM. Moreover, the “CDK2 IC50 range class” value in assay [2] was “+++ (IC50>2500 nM)”. For the same molecule, the “CDK9: Selectivity of CDK7 inhibition over CDK9 inhibition [fold]” value in assay [3] is recorded as “+++ (IC50>2500 nM)”.

`COc1cccc([C@H](C)Nc2nc(O[C@@H]3CCCNC3)nc3c(C(C)C)cnn23)c1` [(VII-r), 8-isopropyl-N-((S)-1-(3-methoxyphenyl)ethyl)-2-((R)-piperidin-3-yloxy)pyrazolo[1,5-a][1,3,5]triazin-4-amine]: the IC50 in assay [1] (setting [4]) is less than 10 nM. The “CDK2 IC50 range class” value in assay [2] is listed as “+++ (IC50>2500 nM)”. For the same molecule, in assay [3], the “CDK9: Selectivity of CDK7 inhibition over CDK9 inhibition [fold]” value is on record as “+++ (IC50>2500 nM)”.

The values are drawn from patent US9096608B2, “Pharmaceutically active pyrazolo-triazine derivatives” (LEAD DISCOVERY CENTER GMBH, priority 2012, dated 2015).
